Test results from the CheMixHub viscosity set.
± gives the uncertainty stated by the source.

Test: xn = mol fraction of the nth substance listed

CC(C)(C)N + O
Settings	viscosity [mPa·s]
298 K, 101 kPa, x1 = 0.001	0.993 ± 0.013
298 K, 101 kPa, x1 = 0.01	1.068 ± 0.013
298 K, 101 kPa, x1 = 0.02	1.269 ± 0.014
298 K, 101 kPa, x1 = 0.03	1.527 ± 0.016
298 K, 101 kPa, x1 = 0.04	1.698 ± 0.017
298 K, 101 kPa, x1 = 0.05	1.89 ± 0.018
298 K, 101 kPa, x1 = 0.06	2.059 ± 0.019
298 K, 101 kPa, x1 = 0.08	2.363 ± 0.022
298 K, 101 kPa, x1 = 0.1	2.604 ± 0.023
298 K, 101 kPa, x1 = 0.15	2.992 ± 0.026
298 K, 101 kPa, x1 = 0.2	3.112 ± 0.027
298 K, 101 kPa, x1 = 0.25	3.057 ± 0.027
298 K, 101 kPa, x1 = 0.3	2.832 ± 0.025
298 K, 101 kPa, x1 = 0.4	2.211 ± 0.021
298 K, 101 kPa, x1 = 0.5	1.642 ± 0.017
298 K, 101 kPa, x1 = 0.6	1.195 ± 0.014
298 K, 101 kPa, x1 = 0.7	0.881 ± 0.012
298 K, 101 kPa, x1 = 0.8	0.677 ± 0.011
298 K, 101 kPa, x1 = 0.85	0.594 ± 0.011
298 K, 101 kPa, x1 = 0.9	0.534 ± 0.011
298 K, 101 kPa, x1 = 0.92	0.523 ± 0.011
298 K, 101 kPa, x1 = 0.95	0.48 ± 0.011
298 K, 101 kPa, x1 = 0.97	0.462 ± 0.011
298 K, 101 kPa, x1 = 0.98	0.456 ± 0.011
298 K, 101 kPa, x2 = 0.01	0.445 ± 0.011
298.15 K, 101.33 kPa, x1 = 0.1001	2.654 ± 0.016
298.15 K, 101.33 kPa, x1 = 0.2002	3.163 ± 0.019
298.15 K, 101.33 kPa, x1 = 0.2998	2.906 ± 0.019
298.15 K, 101.33 kPa, x1 = 0.3996	2.294 ± 0.017
298.15 K, 101.33 kPa, x1 = 0.5	1.69 ± 0.014
298.15 K, 101.33 kPa, x1 = 0.5999	1.229 ± 0.011
298.15 K, 101.33 kPa, x1 = 0.6984	0.9094 ± 0.0088
298.15 K, 101.33 kPa, x1 = 0.7998	0.6936 ± 0.0073
298.15 K, 101.33 kPa, x1 = 0.9	0.5459 ± 0.0063
303 K, 101 kPa, x1 = 0.001	0.81 ± 0.012
303 K, 101 kPa, x1 = 0.01	0.947 ± 0.013
303 K, 101 kPa, x1 = 0.02	1.116 ± 0.013
303 K, 101 kPa, x1 = 0.03	1.29 ± 0.014
303 K, 101 kPa, x1 = 0.04	1.455 ± 0.015
303 K, 101 kPa, x1 = 0.05	1.606 ± 0.016
303 K, 101 kPa, x1 = 0.06	1.745 ± 0.017
303 K, 101 kPa, x1 = 0.08	1.986 ± 0.019
303 K, 101 kPa, x1 = 0.1	2.189 ± 0.02
303 K, 101 kPa, x1 = 0.15	2.516 ± 0.022
303 K, 101 kPa, x1 = 0.2	2.622 ± 0.023
303 K, 101 kPa, x1 = 0.25	2.57 ± 0.023
303 K, 101 kPa, x1 = 0.3	2.392 ± 0.021
303 K, 101 kPa, x1 = 0.4	1.901 ± 0.018
303 K, 101 kPa, x1 = 0.5	1.419 ± 0.015
303 K, 101 kPa, x1 = 0.6	1.06 ± 0.013
303 K, 101 kPa, x1 = 0.7	0.787 ± 0.012
303 K, 101 kPa, x1 = 0.8	0.609 ± 0.011
303 K, 101 kPa, x1 = 0.85	0.543 ± 0.011
303 K, 101 kPa, x1 = 0.9	0.49 ± 0.011
303 K, 101 kPa, x1 = 0.92	0.47 ± 0.011
303 K, 101 kPa, x1 = 0.95	0.442 ± 0.011
303 K, 101 kPa, x1 = 0.97	0.426 ± 0.011
303 K, 101 kPa, x1 = 0.98	0.419 ± 0.011
303 K, 101 kPa, x2 = 0.01	0.417 ± 0.011
303.15 K, 101.33 kPa, x1 = 0.1001	2.222 ± 0.014
303.15 K, 101.33 kPa, x1 = 0.2002	2.645 ± 0.017
303.15 K, 101.33 kPa, x1 = 0.2998	2.422 ± 0.017
303.15 K, 101.33 kPa, x1 = 0.3996	1.935 ± 0.014
303.15 K, 101.33 kPa, x1 = 0.5	1.453 ± 0.012
303.15 K, 101.33 kPa, x1 = 0.5999	1.076 ± 0.0096
303.15 K, 101.33 kPa, x1 = 0.6984	0.8077 ± 0.0079
303.15 K, 101.33 kPa, x1 = 0.7998	0.6226 ± 0.0066
303.15 K, 101.33 kPa, x1 = 0.9	0.5017 ± 0.0058
308 K, 101 kPa, x1 = 0.001	0.73 ± 0.012
308 K, 101 kPa, x1 = 0.01	0.846 ± 0.012
308 K, 101 kPa, x1 = 0.02	0.99 ± 0.013
308 K, 101 kPa, x1 = 0.03	1.132 ± 0.014
308 K, 101 kPa, x1 = 0.04	1.263 ± 0.014
308 K, 101 kPa, x1 = 0.05	1.394 ± 0.015
308 K, 101 kPa, x1 = 0.06	1.571 ± 0.016
308 K, 101 kPa, x1 = 0.08	1.718 ± 0.017
308 K, 101 kPa, x1 = 0.1	1.871 ± 0.018
308 K, 101 kPa, x1 = 0.15	2.168 ± 0.021
308 K, 101 kPa, x1 = 0.2	2.211 ± 0.021
308 K, 101 kPa, x1 = 0.25	2.16 ± 0.02
308 K, 101 kPa, x1 = 0.3	2.061 ± 0.02
308 K, 101 kPa, x1 = 0.4	1.643 ± 0.017
308 K, 101 kPa, x1 = 0.5	1.24 ± 0.014
308 K, 101 kPa, x1 = 0.7	0.712 ± 0.011
308 K, 101 kPa, x1 = 0.8	0.566 ± 0.011
308 K, 101 kPa, x1 = 0.85	0.499 ± 0.011
308 K, 101 kPa, x1 = 0.9	0.451 ± 0.011
308 K, 101 kPa, x1 = 0.92	0.433 ± 0.011
308 K, 101 kPa, x1 = 0.95	0.41 ± 0.011
308 K, 101 kPa, x1 = 0.97	0.396 ± 0.011
308 K, 101 kPa, x1 = 0.98	0.389 ± 0.011
308 K, 101 kPa, x2 = 0.01	0.383 ± 0.011
308.15 K, 101.33 kPa, x1 = 0.1001	1.888 ± 0.012
308.15 K, 101.33 kPa, x1 = 0.2002	2.229 ± 0.014
308.15 K, 101.33 kPa, x1 = 0.2998	2.058 ± 0.014
308.15 K, 101.33 kPa, x1 = 0.3996	1.655 ± 0.012
308.15 K, 101.33 kPa, x1 = 0.5	1.258 ± 0.01
308.15 K, 101.33 kPa, x1 = 0.5999	0.9485 ± 0.0085
308.15 K, 101.33 kPa, x1 = 0.6984	0.726 ± 0.0071
308.15 K, 101.33 kPa, x1 = 0.7998	0.5736 ± 0.0062
